From patent US20070010402A1, “Novel herbicides, usage thereof, novel thienopyrimidine derivatives, intermediates of the same, and process for production thereof” (NIHON NOHYAKU CO., LTD.,, priority 2002, published 2007)

Legend:
Test in all cases: Field foliar treatment test (Test Example 1)
Format in all cases: in vivo
Conditions in all cases: foliar spray at 1.0- to 2.0-leaf stage, wettable powder, active ingredient 10 g/a, 21st day from the treatment
Brassica juncea = test system: Brassica juncea
Protocol: (§1) Alluvial soil from a field was put in a resin-made vat having an area of 200 cm^2. After fertilization, the seeds of Echinochloa crus-galli, Brassica juncea, and Ipomoea purpurea were cast on the soil and uniformly covered with the soil. Then, cultivation was continued in a greenhouse, and when the weeds to be tested reached the 1.0- to 2.0-leaf stage, the wettable powder obtained in Formulation Example 1 was diluted with water and a predetermined amount thereof was sprayed uniformly to the weeds by means of a small-sized power pressure spray to give 10 g of the active ingredient per an are. Thereafter, cultivation was further continued in the greenhouse, and the herbicidal effect was examined on the 21st day from the treatment. The results obtained are shown in Table 7 (the compound numbers in Table 7 correspond to those in Table 1 to 6). The herbicidal effect was evaluated in terms of herbicidal rate obtained from the following equation: Herbicidal rate (%)=[1−(Weight of weeds above the ground in a treated plot)/(Weight of weeds above the ground in a non-treated plot)]×100 and was expressed by herbicidal index according to the following criteria. [table]

Ipomoea purpurea = test system: Ipomoea purpurea
Protocol: as §1

Echinochloa crus-galli = test system: Echinochloa crus-galli
Protocol: as §1

Cc1cc2c(-c3ccccc3OC(F)(F)F)nc(Cl)nc2s1 [5-31]
Herbicidal effect Brassica juncea (herbicidal index) (Brassica juncea): 5 (91 to 100)
Herbicidal effect Ipomoea purpurea (herbicidal index) (Ipomoea purpurea): 5 (91 to 100)
Herbicidal effect Echinochloa crus-galli (herbicidal index) (Echinochloa crus-galli): 4 (71 to 90)

CCCOc1nc(-c2cccc(C(F)(F)F)c2)c2cc(C)sc2n1 [6-25]
Herbicidal effect Brassica juncea (herbicidal index) (Brassica juncea): 5 (91 to 100)
Herbicidal effect Ipomoea purpurea (herbicidal index) (Ipomoea purpurea): 5 (91 to 100)
Herbicidal effect Echinochloa crus-galli (herbicidal index) (Echinochloa crus-galli): 4 (71 to 90)

CCCOc1nc(-c2cccc(OC(F)(F)F)c2)c2cc(C)sc2n1 [6-35]
Herbicidal effect Brassica juncea (herbicidal index) (Brassica juncea): 5 (91 to 100)
Herbicidal effect Ipomoea purpurea (herbicidal index) (Ipomoea purpurea): 5 (91 to 100)
Herbicidal effect Echinochloa crus-galli (herbicidal index) (Echinochloa crus-galli): 5 (91 to 100)

CCCOc1nc(-c2cccc(SC(F)(F)F)c2)c2cc(C)sc2n1 [6-39]
Herbicidal effect Brassica juncea (herbicidal index) (Brassica juncea): 4 (71 to 90)
Herbicidal effect Ipomoea purpurea (herbicidal index) (Ipomoea purpurea): 5 (91 to 100)
Herbicidal effect Echinochloa crus-galli (herbicidal index) (Echinochloa crus-galli): 5 (91 to 100)

CCCOc1nc(-c2cccc(OC(F)F)c2)c2cc(C)sc2n1 [6-40]
Herbicidal effect Brassica juncea (herbicidal index) (Brassica juncea): 5 (91 to 100)
Herbicidal effect Ipomoea purpurea (herbicidal index) (Ipomoea purpurea): 5 (91 to 100)
Herbicidal effect Echinochloa crus-galli (herbicidal index) (Echinochloa crus-galli): 4 (71 to 90)

Cc1cc2c(-c3cccc(Br)c3)nc(OC3CCCC3)nc2s1 [6-61]
Herbicidal effect Brassica juncea (herbicidal index) (Brassica juncea): 4 (71 to 90)
Herbicidal effect Ipomoea purpurea (herbicidal index) (Ipomoea purpurea): 4 (71 to 90)
Herbicidal effect Echinochloa crus-galli (herbicidal index) (Echinochloa crus-galli): 4 (71 to 90)

Cc1cc2c(-c3cccc(C(F)(F)F)c3)nc(OC3CCCC3)nc2s1 [6-80]
Herbicidal effect Brassica juncea (herbicidal index) (Brassica juncea): 5 (91 to 100)
Herbicidal effect Ipomoea purpurea (herbicidal index) (Ipomoea purpurea): 5 (91 to 100)
Herbicidal effect Echinochloa crus-galli (herbicidal index) (Echinochloa crus-galli): 5 (91 to 100)

Cc1cc2c(-c3ccc(F)c(C(F)(F)F)c3)nc(OC3CCCC3)nc2s1 [6-83]
Herbicidal effect Brassica juncea (herbicidal index) (Brassica juncea): 4 (71 to 90)
Herbicidal effect Ipomoea purpurea (herbicidal index) (Ipomoea purpurea): 5 (91 to 100)
Herbicidal effect Echinochloa crus-galli (herbicidal index) (Echinochloa crus-galli): 5 (91 to 100)

Cc1cc2c(-c3cccc(OC(F)(F)F)c3)nc(OC3CCCC3)nc2s1 [6-85]
Herbicidal effect Brassica juncea (herbicidal index) (Brassica juncea): 4 (71 to 90)
Herbicidal effect Ipomoea purpurea (herbicidal index) (Ipomoea purpurea): 5 (91 to 100)
Herbicidal effect Echinochloa crus-galli (herbicidal index) (Echinochloa crus-galli): 5 (91 to 100)

C#CC(C)Oc1nc(-c2cccc(C(F)(F)F)c2)c2cc(C)sc2n1 (stereo not drawn) [6-90]
Herbicidal effect Brassica juncea (herbicidal index) (Brassica juncea): 5 (91 to 100)
Herbicidal effect Ipomoea purpurea (herbicidal index) (Ipomoea purpurea): 5 (91 to 100)
Herbicidal effect Echinochloa crus-galli (herbicidal index) (Echinochloa crus-galli): 5 (91 to 100)

C=CCCOc1nc(-c2cccc(C(F)(F)F)c2)c2cc(C)sc2n1 [6-92]
Herbicidal effect Brassica juncea (herbicidal index) (Brassica juncea): 5 (91 to 100)
Herbicidal effect Ipomoea purpurea (herbicidal index) (Ipomoea purpurea): 4 (71 to 90)
Herbicidal effect Echinochloa crus-galli (herbicidal index) (Echinochloa crus-galli): 5 (91 to 100)

Cc1cc2c(-c3cccc(C(F)(F)F)c3)nc(OCCF)nc2s1 [6-96]
Herbicidal effect Brassica juncea (herbicidal index) (Brassica juncea): 5 (91 to 100)
Herbicidal effect Ipomoea purpurea (herbicidal index) (Ipomoea purpurea): 5 (91 to 100)
Herbicidal effect Echinochloa crus-galli (herbicidal index) (Echinochloa crus-galli): 4 (71 to 90)

Cc1cc2c(-c3cccc(C(F)(F)F)c3)nc(OCC(F)(F)F)nc2s1 [6-97]
Herbicidal effect Brassica juncea (herbicidal index) (Brassica juncea): 5 (91 to 100)
Herbicidal effect Ipomoea purpurea (herbicidal index) (Ipomoea purpurea): 5 (91 to 100)
Herbicidal effect Echinochloa crus-galli (herbicidal index) (Echinochloa crus-galli): 5 (91 to 100)

Cc1cc2c(-c3cccc(C(F)(F)F)c3)nc(OCC(Cl)(Cl)Cl)nc2s1 [6-98]
Herbicidal effect Brassica juncea (herbicidal index) (Brassica juncea): 4 (71 to 90)
Herbicidal effect Ipomoea purpurea (herbicidal index) (Ipomoea purpurea): 5 (91 to 100)
Herbicidal effect Echinochloa crus-galli (herbicidal index) (Echinochloa crus-galli): 5 (91 to 100)

Cc1cc2c(-c3cccc(OC(F)(F)F)c3)nc(OCC(F)F)nc2s1 [6-109]
Herbicidal effect Brassica juncea (herbicidal index) (Brassica juncea): 5 (91 to 100)
Herbicidal effect Ipomoea purpurea (herbicidal index) (Ipomoea purpurea): 4 (71 to 90)
Herbicidal effect Echinochloa crus-galli (herbicidal index) (Echinochloa crus-galli): 5 (91 to 100)

Cc1cc2c(-c3cccc(OC(F)(F)F)c3)nc(OCC(F)(F)C(F)F)nc2s1 [6-112]
Herbicidal effect Brassica juncea (herbicidal index) (Brassica juncea): 5 (91 to 100)
Herbicidal effect Ipomoea purpurea (herbicidal index) (Ipomoea purpurea): 5 (91 to 100)
Herbicidal effect Echinochloa crus-galli (herbicidal index) (Echinochloa crus-galli): 5 (91 to 100)
